# Test results published in PubChem BioAssay AID1963971 (Molecular Pharmacology Branch, DTP, NCI, 2024).
# System: 953936-095-R-J2-PDC spheroids with HUVEC/MSC, viability
# Experiment: Anticancer human tumor 953936-095-R-J2-PDC patient-derived cervical squamous cell carcinoma cell line growth inhibition [PI3K]
# Settings: for IC50: curve of first compound; for viability, T/C: stronger effect = lower value
# Summary of the method: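 Targeted small molecules plus PI3K inhibitors, half-log dose series from Cmax (default top 10 microM), were applied to heterotypic spheroids of cancer cells with HUVEC and MSCs. Viability indicated growth inhibition.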
# [1] = second compound 0.0316 µM, first compound 0.0316 µM
# [2] = second compound 0.0316 µM, first compound 0.1 µM
# [3] = second compound 0.0316 µM, first compound 0.316 µM
# [4] = second compound 0.0316 µM, first compound 1 µM
# [5] = second compound 0.0316 µM, first compound 3.16 µM
# [6] = second compound 0.0316 µM, first compound 10 µM
# [7] = second compound 0.1 µM, first compound 0.0316 µM
# [8] = second compound 0.1 µM, first compound 0.1 µM
# [9] = second compound 0.1 µM, first compound 0.316 µM
# [10] = second compound 0.1 µM, first compound 1 µM
# [11] = second compound 0.1 µM, first compound 3.16 µM
# [12] = second compound 0.1 µM, first compound 10 µM
# [13] = second compound 0.316 µM, first compound 0.0316 µM
# [14] = second compound 0.316 µM, first compound 0.1 µM
# [15] = second compound 0.316 µM, first compound 0.316 µM
# [16] = second compound 0.316 µM, first compound 1 µM
# [17] = second compound 0.316 µM, first compound 3.16 µM
# [18] = second compound 0.316 µM, first compound 10 µM
# [19] = second compound 1 µM, first compound 0.0316 µM
# [20] = second compound 1 µM, first compound 0.1 µM
# [21] = second compound 1 µM, first compound 0.316 µM
# [22] = second compound 1 µM, first compound 1 µM
# [23] = second compound 1 µM, first compound 3.16 µM
# [24] = second compound 1 µM, first compound 10 µM
# [25] = second compound 3.16 µM, first compound 0.0316 µM
# [26] = second compound 3.16 µM, first compound 0.1 µM
# [27] = second compound 3.16 µM, first compound 0.316 µM
# [28] = second compound 3.16 µM, first compound 1 µM
# [29] = second compound 3.16 µM, first compound 3.16 µM
# [30] = second compound 3.16 µM, first compound 10 µM
# [31] = second compound 10 µM, first compound 0.0316 µM
# [32] = second compound 10 µM, first compound 0.1 µM
# [33] = second compound 10 µM, first compound 0.316 µM
# [34] = second compound 10 µM, first compound 1 µM
# [35] = second compound 10 µM, first compound 3.16 µM
# [36] = second compound 10 µM, first compound 10 µM
# 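Note: spheroids exposed to compounds for seven days before read-out.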
structure (smiles),measurement,setting,value
C#Cc1c(F)ccc2cc(O)cc(-c3ncc4c(N5CC6CCC(C5)N6)nc(OCC56CCCN5CC(F)C6)nc4c3F)c12 (stereo unspecified) + Cc1nc(NC(=O)N2CCCC2C(N)=O)sc1-c1ccnc(C(C)(C)C(F)(F)F)c1,IC50,second compound 0.0316 µM,> 10000 nM
same,IC50,second compound 0.1 µM,> 10000 nM
same,IC50,second compound 0.316 µM,1350 nM
same,IC50,second compound 1 µM,< 31.6 nM
same,IC50,second compound 3.16 µM,< 31.6 nM
same,IC50,second compound 10 µM,< 31.6 nM
same,"viability, T/C",[1],97.6%
same,"viability, T/C",[2],102%
same,"viability, T/C",[3],92.3%
same,"viability, T/C",[4],82.2%
same,"viability, T/C",[5],71.3%
same,"viability, T/C",[6],67.9%
same,"viability, T/C",[7],79.7%
same,"viability, T/C",[8],81.7%
same,"viability, T/C",[9],92.8%
same,"viability, T/C",[10],74.6%
same,"viability, T/C",[11],61.9%
same,"viability, T/C",[12],51.9%
same,"viability, T/C",[13],64.7%
same,"viability, T/C",[14],59.1%
same,"viability, T/C",[15],57%
same,"viability, T/C",[16],49.4%
same,"viability, T/C",[17],48.9%
same,"viability, T/C",[18],38.2%
same,"viability, T/C",[19],43.8%
same,"viability, T/C",[20],42.3%
same,"viability, T/C",[21],39%
same,"viability, T/C",[22],34.7%
same,"viability, T/C",[23],28.3%
same,"viability, T/C",[24],21.6%
same,"viability, T/C",[25],25.2%
same,"viability, T/C",[26],23.8%
same,"viability, T/C",[27],22.5%
same,"viability, T/C",[28],17.2%
same,"viability, T/C",[29],12.3%
same,"viability, T/C",[30],10.1%
same,"viability, T/C",[31],10.3%
same,"viability, T/C",[32],10%
same,"viability, T/C",[33],8.35%
same,"viability, T/C",[34],7.39%
same,"viability, T/C",[35],6.74%
same,"viability, T/C",[36],4.92%
C=CC(=O)N1CCN(c2nc(=O)n(-c3c(C)ccnc3C(C)C)c3nc(-c4c(O)cccc4F)c(F)cc23)C(C)C1 (stereo unspecified) + Cc1nc(NC(=O)N2CCCC2C(N)=O)sc1-c1ccnc(C(C)(C)C(F)(F)F)c1,IC50,second compound 0.0316 µM,> 10000 nM
same,IC50,second compound 0.1 µM,> 10000 nM
same,IC50,second compound 0.316 µM,> 10000 nM
same,IC50,second compound 1 µM,< 31.6 nM
same,IC50,second compound 3.16 µM,< 31.6 nM
same,IC50,second compound 10 µM,< 31.6 nM
same,"viability, T/C",[1],85.5%
same,"viability, T/C",[2],89.2%
same,"viability, T/C",[3],95.8%
same,"viability, T/C",[4],109%
same,"viability, T/C",[5],110%
same,"viability, T/C",[6],105%
same,"viability, T/C",[7],81.9%
same,"viability, T/C",[8],83.7%
same,"viability, T/C",[9],90.2%
same,"viability, T/C",[10],98.6%
same,"viability, T/C",[11],123%
same,"viability, T/C",[12],117%
same,"viability, T/C",[13],64.5%
same,"viability, T/C",[14],65.7%
same,"viability, T/C",[15],68.8%
same,"viability, T/C",[16],86%
same,"viability, T/C",[17],84.4%
same,"viability, T/C",[18],73.7%
same,"viability, T/C",[19],46%
same,"viability, T/C",[20],52.1%
same,"viability, T/C",[21],47.7%
same,"viability, T/C",[22],51.5%
same,"viability, T/C",[23],55.9%
same,"viability, T/C",[24],48%
same,"viability, T/C",[25],27%
same,"viability, T/C",[26],27.8%
same,"viability, T/C",[27],27%
same,"viability, T/C",[28],32.8%
same,"viability, T/C",[29],33.4%
same,"viability, T/C",[30],26.1%
same,"viability, T/C",[31],11.5%
same,"viability, T/C",[32],11.8%
same,"viability, T/C",[33],11.9%
same,"viability, T/C",[34],11.9%
same,"viability, T/C",[35],10.8%
same,"viability, T/C",[36],7.49%
CC(Cn1ccc(-c2ccc(C#N)c(Cl)c2)n1)NC(=O)c1cc(C(C)O)[nH]n1 (stereo unspecified) + Cc1nc(NC(=O)N2CCCC2C(N)=O)sc1-c1ccnc(C(C)(C)C(F)(F)F)c1,IC50,second compound 0.0316 µM,> 10000 nM
same,IC50,second compound 0.1 µM,> 10000 nM
same,IC50,second compound 0.316 µM,> 10000 nM
same,IC50,second compound 1 µM,< 31.6 nM
same,IC50,second compound 3.16 µM,< 31.6 nM
same,IC50,second compound 10 µM,< 31.6 nM
same,"viability, T/C",[1],83.7%
same,"viability, T/C",[2],95.2%
same,"viability, T/C",[3],86.4%
same,"viability, T/C",[4],96.9%
same,"viability, T/C",[5],89.8%
same,"viability, T/C",[6],107%
same,"viability, T/C",[7],84.8%
same,"viability, T/C",[8],77.9%
same,"viability, T/C",[9],78.2%
same,"viability, T/C",[10],81.2%
same,"viability, T/C",[11],82.4%
same,"viability, T/C",[12],79.5%
same,"viability, T/C",[13],69.4%
same,"viability, T/C",[14],65.3%
same,"viability, T/C",[15],74.1%
same,"viability, T/C",[16],61%
same,"viability, T/C",[17],61.7%
same,"viability, T/C",[18],66.5%
same,"viability, T/C",[19],43.9%
same,"viability, T/C",[20],41.7%
same,"viability, T/C",[21],43.5%
same,"viability, T/C",[22],45.9%
same,"viability, T/C",[23],44.1%
same,"viability, T/C",[24],44.6%
same,"viability, T/C",[25],24.7%
same,"viability, T/C",[26],26.9%
same,"viability, T/C",[27],27.6%
same,"viability, T/C",[28],25.2%
same,"viability, T/C",[29],26.9%
same,"viability, T/C",[30],28.4%
same,"viability, T/C",[31],10.3%
same,"viability, T/C",[32],10.8%
same,"viability, T/C",[33],10.9%
same,"viability, T/C",[34],11.1%
same,"viability, T/C",[35],10.8%
same,"viability, T/C",[36],13%
